Reference: patent publication US9796713B2, “Tricyclic compounds as alpha-7 nicotinic acetylcholine receptor ligands” (BRISTOL-MYERS SQUIBB COMPANY, priority 2014, dated 2017)
Read-outs that look alike come from different tables or passages of the source.

Columns and labels:
α7-HI = target: T1, α7-HI (Rattus norvegicus, UniProt Q05941); assay: FLIPR Ca2+-sensitive fluorescence assay, α7-HI (agonist activity) in HEK 293 cells; type: cell-based; settings: Ca2+ flux, HEK-293 cells expressing the channel, read-out: FLIPR α7-HI (EC50)
T1 construct: expressed in transfected cells
T1 sequence (Q05941 23-502): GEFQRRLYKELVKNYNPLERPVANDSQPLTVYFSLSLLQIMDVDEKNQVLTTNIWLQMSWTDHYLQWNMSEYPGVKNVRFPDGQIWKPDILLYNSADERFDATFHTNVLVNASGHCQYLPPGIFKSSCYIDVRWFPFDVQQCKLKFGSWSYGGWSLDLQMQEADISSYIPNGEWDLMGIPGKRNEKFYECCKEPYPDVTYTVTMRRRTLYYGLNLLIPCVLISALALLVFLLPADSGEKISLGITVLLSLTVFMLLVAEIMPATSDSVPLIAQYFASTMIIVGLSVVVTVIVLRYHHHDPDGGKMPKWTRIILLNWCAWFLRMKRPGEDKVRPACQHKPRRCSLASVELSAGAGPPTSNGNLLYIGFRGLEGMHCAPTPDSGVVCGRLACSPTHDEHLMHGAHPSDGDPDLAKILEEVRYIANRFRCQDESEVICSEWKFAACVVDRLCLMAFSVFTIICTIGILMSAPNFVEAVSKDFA
Description: I) α7 Nicotinic Acetycholine Receptor Binding. Membranes were prepared for binding using HEK293 cells stably expressing the rat α7 nicotinic acetycholine receptor (rat α7 nAChR). Cells were homogenized at 4° C. in hypotonic lysis buffer consisting of 10 mM Tris (pH 7.4), 5 mM EDTA and protease inhibitors and centrifuged at 32000×g for 20 minutes. The pellet was washed once in membrane wash buffer consisting of 50 mM Tris (pH 7.4), 1 mM EDTA and protease inhibitors and centrifuged at 32000×g for 20 minutes. This pellet was then resuspended in assay buffer consisting 50 mM KH2PO4 (pH 7.4 at 25° C.), 1 mM EDTA, 0.005% Triton-X 100 and 0.1% (v/v) Sigma Protease Inhibitor Cocktail. Aliquots were then frozen in dry ice/ethanol and kept at −80° C. until the day of the assay. II) A Ca^2+-Sensitive, Fluorescence-Based Assay α-7 for Nicotinic Acetylcholine Receptor Channel Function in Mammalian Cells (“FLIPR”). Summary: Lead compounds are evaluated for agonist activity at α-7, α3β4, α4αβ2, and α1β1δ1ε sub-types of nicotinic ACh receptor ion channels expressed in mammalian HEK 293 cells. Agonist potency and efficacy values are determined from kinetic fluorescence Ca^2+ influx measurements made using a 384 well FLIPR (Fluorescence Image Plate Reader). […] In this assay, channel expressing HEK cell lines seeded in 384 well assay plates are loaded with a membrane permeant fluorescent Ca^2+ indicator dye, whose 510 nm green emission signal increases in response to elevation of intracellular Ca^2+ concentration. The basal fluorescence from the cells is monitored in real time, followed by the acute addition of test compounds.
(§1) Materials and Methods: Reagents: The acetomethoxy (AM) ester of the Ca^2+ indicator dye Fluo-4 was obtained from InVitrogen, (Carlsbad, Calif.). Acetylcholine and all buffer constituents were purchased from Sigma Chemical Company, St. Louis, Mo. G418 and Minimal Essential Medium were purchased from InVitrogen Life Technologies, Carlsbad, Calif. Fetal bovine serum was purchased from (InVitrogen, Carlsbad, Calif.).
(§2) Cell Culture: HEK-293 cells were grown in Minimal Essential Medium containing 10% (v/v) fetal bovine serum at 37° C. in a 5% CO2 incubator. HEK-293 cells stably expressing the ion channels were grown in the same medium with the addition of 500 μg/ml G418.
Ca^2+ flux assays of Ca^2+ channels expressed in HEK-293 cells: HEK-293 cells expressing the ion channels of interest were plated in 384 well, black-walled, clear-bottomed, poly-D-lysine coated plates at a density of ˜20,000 cells/well in 20 μl of Minimal Essential Medium containing 10% (v/v) fetal bovine serum and incubated for 2 days at 29° C. in a 5% CO2 incubator. Prior to assay, cells were loaded with the Fluo-4 AM ester. […] Dye loading was allowed to proceed for 90 minutes at room temperature at which time the dye loading solution was removed and replaced with 40 μl/well of Hanks buffer. Cells loaded with dye were loaded onto a FLIPR384 (Molecular Devices, Sunnyvale, Calif.). Fluo-4 dye was excited using the 488 nm line of an argon laser. Emission was filtered using a 540+/−30 nm bandpass filter. For evaluation of the effects of test compounds using the Ca^2+ flux assay, compounds to be tested were provided in assay ready plates. For nicotinic receptor ion channel expressing cells, the assay was initiated by the addition of 20 μl/well of Hanks buffer containing test compounds. For all assays, data were collected at 1 Hz for 10 seconds (baseline), at which time the compound containing stimulus buffers are added, and further measurements collected at 0.33 Hz for 3 min.
Data Analysis: The statistical robustness of the nicotinic receptor Ca^2+ flux assays is determined from blanks and totals wells. […] The raw fluorescence units data files generated on the FLIPR plate reader are automatically exported and processed by in-house data analysis tools.

[1] = target: T2, α-7 nicotinic ACh receptor ion channel (Rattus norvegicus, UniProt Q05941); assay: FLIPR Ca2+-sensitive fluorescence assay of α7 nicotinic acetylcholine receptor channel function (agonist activity) in HEK 293 cells; type: cell-based; settings: Ca2+ flux, HEK-293 cells expressing the channel
T2 construct: expressed in transfected cells
T2 sequence (Q05941 23-502): as above
Description: I) α7 Nicotinic Acetycholine Receptor Binding. Membranes were prepared for binding using HEK293 cells stably expressing the rat α7 nicotinic acetycholine receptor (rat α7 nAChR). Cells were homogenized at 4° C. in hypotonic lysis buffer consisting of 10 mM Tris (pH 7.4), 5 mM EDTA and protease inhibitors and centrifuged at 32000×g for 20 minutes. The pellet was washed once in membrane wash buffer consisting of 50 mM Tris (pH 7.4), 1 mM EDTA and protease inhibitors and centrifuged at 32000×g for 20 minutes. This pellet was then resuspended in assay buffer consisting 50 mM KH2PO4 (pH 7.4 at 25° C.), 1 mM EDTA, 0.005% Triton-X 100 and 0.1% (v/v) Sigma Protease Inhibitor Cocktail. Aliquots were then frozen in dry ice/ethanol and kept at −80° C. until the day of the assay. II) A Ca^2+-Sensitive, Fluorescence-Based Assay α-7 for Nicotinic Acetylcholine Receptor Channel Function in Mammalian Cells (“FLIPR”). Summary: Lead compounds are evaluated for agonist activity at α-7, α3β4, α4αβ2, and α1β1δ1ε sub-types of nicotinic ACh receptor ion channels expressed in mammalian HEK 293 cells. Agonist potency and efficacy values are determined from kinetic fluorescence Ca^2+ influx measurements made using a 384 well FLIPR (Fluorescence Image Plate Reader). The utility of fluorescent indicators for measuring changes in intracellular divalent cation concentrations, particularly Ca^2+, for drug discovery endeavors is well documented (Rudiger, R., et al., Nature Reviews, 2003, 4:579-586; Gonzalez J. E., et al., Receptors and Channels, 2002, 8:283-295). In this assay, channel expressing HEK cell lines seeded in 384 well assay plates are loaded with a membrane permeant fluorescent Ca^2+ indicator dye, whose 510 nm green emission signal increases in response to elevation of intracellular Ca^2+ concentration. The basal fluorescence from the cells is monitored in real time, followed by the acute addition of test compounds. If the compound is an agonist at any of the non-selective cation channels, the latter open and allow the movement of extracellular Ca^2+ ions into the cell cytoplasm, where they bind to the Ca^2+ indicator dye, and produce an increase in fluorescence output signal, which is detected by a cooled CCD imaging camera.
as §1, §2
Ca^2+ flux assays of Ca^2+ channels expressed in HEK-293 cells: HEK-293 cells expressing the ion channels of interest were plated in 384 well, black-walled, clear-bottomed, poly-D-lysine coated plates at a density of ˜20,000 cells/well in 20 μl of Minimal Essential Medium containing 10% (v/v) fetal bovine serum and incubated for 2 days at 29° C. in a 5% CO2 incubator. Prior to assay, cells were loaded with the Fluo-4 AM ester. Cell loading was accomplished by removing the culture medium and replacing it with 30 μl/well of the AM ester of the dye (5 μM) mixed with Hanks Balanced Salt Solution (#14175-095) containing 20 mM HEPES, 2.5 mM probenecid, 0.5 mM CaCl2, 1 mM MgCl2 and 10 μM atropine. Dye loading was allowed to proceed for 90 minutes at room temperature at which time the dye loading solution was removed and replaced with 40 μl/well of Hanks buffer. Cells loaded with dye were loaded onto a FLIPR384 (Molecular Devices, Sunnyvale, Calif.). Fluo-4 dye was excited using the 488 nm line of an argon laser. Emission was filtered using a 540+/−30 nm bandpass filter. […]

SMILES: O=C(c1n[nH]c2cc(F)ccc12)N1C2CC3CN(CCC31)C2 (stereo not drawn) [Example 42, ((2S*,3aR*,5R*,7aS*)-(6-fluoro-1H-indazol-3-yl)(hexahydro-2,5-methanopyrrolo[3,2-c]pyridin-1(6H)-yl)methanone]
- EC50 (α7-HI; Table 4): 54 nM

SMILES: Cc1ccc2c(C(=O)N3[C@H]4C[C@@H]5C[N@@](CC[C@@H]53)C4)n[nH]c2c1 [Example 49a, (2S,3aR,5R,7aS)-(6-methyl-1H-indazol-3-yl)(hexahydro-2,5-methanopyrrolo[3,2-c]pyridin-1(6H)-yl)methanone]
- EC50 (α7-HI; Table 4): 3.1 nM

SMILES: O=C(c1n[nH]c2cc(Cl)ccc12)N1C2CC3CN(CCC31)C2 (stereo not drawn) [Example 46, ((2S*,3aR*,5R*,7aS*)-(6-chloro-1H-indazol-3-yl)(hexahydro-2,5-methanopyrrolo[3,2-c]pyridin-1(6H)-yl)methanone]
- EC50 (α7-HI; Table 4): 10 nM

SMILES: Cc1ccc2c(C(=O)N3C4CC5CN(CCC53)C4)n[nH]c2c1 (stereo not drawn) [Example 49, ((2S*,3aR*,5R*,7aS*)-(6-methyl-1H-indazol-3-yl)(hexahydro-2,5-methanopyrrolo[3,2-c]pyridin-1(6H)-yl)methanone]
- EC50 (α7-HI; Table 4): 4.2 nM

SMILES: Cc1ccc2c(C(=O)N3[C@@H]4C[C@H]5C[N@](CC[C@H]53)C4)n[nH]c2c1 [Example 49b, (2R,3aS,5S,7aR)-(6-methyl-1H-indazol-3-yl)(hexahydro-2,5-methanopyrrolo[3,2-c]pyridin-1(6H)-yl)methanone]
- EC50 (α7-HI; Table 4): 47 nM

SMILES: O=C(c1n[nH]c2ccc(Cl)cc12)N1C2CC3CN(CCC31)C2 (stereo not drawn) [Example 40, ((2S*,3aR*,5R*,7aS*)-(5-chloro-1H-indazol-3-yl)(hexahydro-2,5-methanopyrrolo[3,2-c]pyridin-1(6H)-yl)methanone]
- EC50 (α7-HI; Table 4): 79 nM

SMILES: COc1cccc2[nH]nc(C(=O)N3C4CC5CN(CCC53)C4)c12 (stereo not drawn) [Example 48, ((2S*,3aR*,5R*,7aS*)-(4-methoxy-1H-indazol-3-yl)(hexahydro-2,5-methanopyrrolo[3,2-c]pyridin-1(6H)-yl)methanone]
- EC50 (α7-HI; Table 4): 7400 nM

SMILES: O=C(c1n[nH]c2ccccc12)N1C2CC3C1CCCN3C2 (stereo not shown) [Example 50, (1H-indazol-3-yl)(octahydro-2,8-epiminoindolizin-9-yl)methanone]
- EC50 (α7-HI; Table 5): 360 nM

SMILES: O=C(c1n[nH]c2ccccc12)N1[C@H]2C[C@@H]3C[N@@](CC[C@@H]31)C2 (single isomer, unassigned) [Example 34a]
- EC50 (α7-HI; Table 4): 7.5 nM

SMILES: O=C(c1cc2cccc(Cl)c2s1)N1C2CC3CN(CCC31)C2 (stereo not drawn) [Example 35, ((2S*,3aR*,5R*,7aS*)-(7-chloro-benzo[b]thiophen-2-yl)(hexahydro-2,5-methanopyrrolo[3,2-c]pyridin-1(6H)-yl)methanone]
- EC50 (α7-HI; Table 4): 5600 nM

SMILES: O=C(c1ccc(Cl)cc1)N1C2CC3CN(CCC31)C2 (stereo not drawn) [Example 36, ((2S*,3aR*,5R*,7aS*)-(4-chlorophenyl)(hexahydro-2,5-methanopyrrolo[3,2-c]pyridin-1(6H)-yl)methanone]
- EC50 (α7-HI; Table 4): > 100000 nM

SMILES: O=C(c1cc2cccc(Cl)c2s1)N1C2CC3C1CCCN3C2 (stereo not shown) [Example 51, (7-chlorobenzo[b]thiophen-2-yl)(octahydro-2,8-epiminoindolizin-9-yl)methanone]
- EC50 (α7-HI; Table 5): > 100000 nM

SMILES: O=C(c1n[nH]c2c(Cl)cccc12)N1C2CC3CN(CCC31)C2 (stereo not drawn) [Example 45, ((2S*,3aR*,5R*,7aS*)-(7-chloro-1H-indazol-3-yl)(hexahydro-2,5-methanopyrrolo[3,2-c]pyridin-1(6H)-yl)methanone]
- EC50 (α7-HI; Table 4): > 100000 nM

SMILES: O=C(c1n[nH]c2cc(F)ccc12)N1[C@@H]2C[C@H]3CC[N@@](C2)C[C@H]31 [Example 26, (6-fluoro-1H-indazol-3-yl)((2R,3aR,6S,7aS)-hexahydro-2,6-methanopyrrolo[2,3-c]pyridin-1(2H)-yl)methanone]
- EC50 ([1]; Table 3): 430 nM

SMILES: O=C(c1n[nH]c2ncccc12)N1[C@@H]2C[C@H]3CC[N@@](C2)C[C@H]31 [Example 31, ((2R,3aR,6S,7aS)-hexahydro-2,6-methanopyrrolo[2,3-c]pyridin-1(2H)-yl)(1H-pyrazolo[3,4-b]pyridin-3-yl)methanone]
- EC50 ([1]; Table 3): 9200 nM

SMILES: O=C(c1n[nH]c2ccccc12)N1C2CC3CCN(C2)CC31 (stereo not shown) [Example 1, (hexahydro-2,6-methanopyrrolo[2,3-c]pyridin-1(2H)-yl)(1H-indazol-3-yl)methanone]
- EC50 ([1]; Table 1): 73 nM

SMILES: O=C(c1n[nH]c2cc(Cl)ccc12)N1[C@H]2C[C@@H]3CC[N@](C2)C[C@@H]31 [Example 17, (6-chloro-1H-indazol-3-yl)((2S,3aS,6R,7aR)-hexahydro-2,6-methanopyrrolo[2,3-c]pyridin-1(2H)-yl)methanone]
- EC50 ([1]; Table 2): 30 nM

SMILES: O=C(c1cc2cccc(Cl)c2s1)N1C2CC3CCN(C2)CC31 (stereo not shown) [Example 4, (7-chlorobenzo[b]thiophen-2-yl)(hexahydro-2,6-methanopyrrolo[2,3-c]pyridin-1(2H)-yl)methanone]
- EC50 ([1]; Table 1): > 100000 nM

SMILES: O=C(c1cc(-c2ccccc2)[nH]n1)N1[C@@H]2C[C@H]3CC[N@@](C2)C[C@H]31 [Example 32, ((2R,3aR,6S,7aS)-hexahydro-2,6-methanopyrrolo[2,3-c]pyridin-1(2H)-yl)(5-phenyl-1H-pyrazol-3-yl)methanone]
- EC50 ([1]; Table 3): > 100000 nM
